Assays:
[1] = system: Pyricularia oryzae (rice blast); test: whole plant or invertebrate; format: in vivo; settings: foliar, read-out: RICE BLAST control rating
[2] = system: Southern corn rootworm (Diabrotica undecimpuctata howardi Barber); test: Mite/insect screen, corn rootworm; format: in vivo; settings: Diabrotica, soil, read-out: CRW results (percent mortality); for mortality at 12 ppm: CRW rate 12.00 ppm; for mortality at 24 ppm: CRW rate 24.00 ppm
Method: (§1) The compounds of Examples were tested for miticidal and insecticidal activity in the following mite/insect screen.
(§2) Each test compound was formulated by dissolving the compound in acetone/alcohol (50:50) mixture containing 23 g of "TOXIMUL R" (sulfonate/nonionic emulsifier blend) and 13 g of "TOXIMUL S" (sulfonate/nonionic emulsifier blend) per liter. These mixtures were then diluted with water to give the indicated concentrations.
Activity on Southern corn rootworm (Diabrotica undecimpuctata howardi Barber) was evaluated by adding two ml of tap water, a presoaked corn seed, and 15 g of dry sandy soil to a one ounce plastic container. The soil was treated with 1 mL of test solution containing a predetermined concentration of test compound. After six to 12 hours of drying, five 2-3 instar corn rootworm larvae were added to the individual cups, which were then capped and held at 23° C.
(§3) After standard exposure periods, percent mortality and phytotoxicity were evaluated. […] The following abbreviations are used in Table 3:
CRW refers to corn rootworm

[3] = system: southern armyworm (Spodopetra eridania Cramer); test: Mite/insect screen, Southern armyworm; format: in vivo; settings: Spodoptera eridania, sprayed leaves, read-out: SAW results (percent mortality); for mortality at 200 ppm: rate 200 ppm; for mortality at 400 ppm: rate 400 ppm
Method: as §1, §2
(§4) Twospotted spider mites (Tetranychus urticae Koch) and melon aphids (Aphis gossvpii Glover) were introduced on squash cotyledons and allowed to establish on both leaf surfaces. Other plants in the same treatment pot were left uninfested. The leaves were then sprayed with 5 ml of test solution using a DeVilbiss atomizing sprayer at 10 psi. Both surfaces of the leaves were covered until runoff, and then allowed to dry for one hour. Two uninfested leaves were then excised and placed into a Petri dish containing larval southern armyworm (Spodopetra eridania Cramer).
as §3
SAW refers to Southern armyworm

[4] = system: Twospotted spider mites (Tetranychus urticae Koch); test: Mite/insect screen, twospotted spider mites; format: in vivo; settings: Tetranychus urticae, sprayed leaves, read-out: SM results (percent mortality); for mortality at 200 ppm: rate 200 ppm; for mortality at 400 ppm: rate 400 ppm
Method: as §1, §2, §4, §3
SM refers to twospotted spider mites

[5] = system: melon aphids (Aphis gossvpii Glover); test: Mite/insect screen, melon aphids; format: in vivo; settings: Aphis, sprayed leaves, read-out: MA results (percent mortality); for mortality at 200 ppm: rate 200 ppm; for mortality at 400 ppm: rate 400 ppm
Method: as §1, §2, §4, §3
MA refers to melon aphids.

[6] = system: Puccinia recondita tritici (leaf rust); test: Plant pathology screen (Test 1), leaf rust on wheat; settings: in Triticum aestivum, foliar, read-out: LEAF RUST control rating
[7] = system: Pseudoperonospora cubensis (downy mildew); test: Plant pathology screen (Test 1), downy mildew on squash; settings: foliar, read-out: DOWN MDEW control rating
[8] = system: Erysiphe graminis tritici (powdery mildew); test: Plant pathology screen (Test 1), powdery mildew on wheat; settings: Blumeria graminis, in Triticum aestivum, foliar, read-out: POWD MDEW control rating
[9] = system: Botrytis cinerea (gray mold); test: Plant pathology screen (Test 1), gray mold on grape berries; settings: read-out: GRAY MOLD control rating

`Cc1coc2ncnc(NCCSCc3c(F)cccc3Cl)c12` [Example 16, 5-methyl-N-[2-[[ (2-chloro-6-fluorophenyl)methyl]thio]ethyl]furo[2,3-d]pyrimidin-4-amine] was tested, and the pest or weed control at 400 µg/mL [1] was 0 to 19%, the mortality at 12 ppm [2] was 0% and the mortality at 24 ppm [2] was 0%. It also gave a mortality at 200 ppm [3] of 0%, a mortality at 400 ppm [3] of 0% and a mortality at 200 ppm [4] of 0%. It also gave a mortality at 400 ppm [4] of 0%, a mortality at 200 ppm [5] of 0% and a mortality at 400 ppm [5] of 0%. The pest or weed control at 400 µg/mL [6] was 0 to 19%, the pest or weed control at 400 µg/mL [7] was 0 to 19% and the pest or weed control at 400 µg/mL [8] was 0 to 19%. For the same compound, the pest or weed control at 400 µg/mL [9] was 0 to 19%.
`Cc1oc2ncnc(NCCSCc3c(F)cccc3Cl)c2c1C` [Example 14, 5,6 dimethyl-N-[2-[[(2-chloro-6-fluorophenyl)methyl]thio]ethyl]furo[2,3-d]pyrimidin-4-amine] gave a pest or weed control at 400 µg/mL [1] of 0 to 19%, a mortality at 12 ppm [2] of 0% and a mortality at 24 ppm [2] of 0%. For the same compound, the mortality at 200 ppm [3] was 0%, the mortality at 400 ppm [3] was 0% and the mortality at 200 ppm [4] was 0%. It also gave a mortality at 400 ppm [4] of 0%, a mortality at 200 ppm [5] of 0% and a mortality at 400 ppm [5] of 0%. For the same compound, the pest or weed control at 400 µg/mL [6] was 0 to 19%, the pest or weed control at 400 µg/mL [7] was 0 to 19% and the pest or weed control at 400 µg/mL [8] was 0 to 19%. For the same compound, the pest or weed control at 400 µg/mL [9] was 0 to 19%.
Compound `Cc1cc2c(NCCc3ccc4ccccc4c3)ncnc2o1` [Example 31, 6-methyl-N-[2-(2-naphthalenyl)ethyl]furo[2,3-d]pyrimidine-4-amine] has a pest or weed control at 400 µg/mL [1] of 20 to 89%, a mortality at 12 ppm [2] of 0% and a mortality at 24 ppm [2] of 0%. For the same compound, the mortality at 200 ppm [3] was 100%, the mortality at 400 ppm [3] was 80% and the mortality at 200 ppm [4] was 20%. It also gave a mortality at 400 ppm [4] of 100%, a mortality at 200 ppm [5] of 90% and a mortality at 400 ppm [5] of 0%. It also gave a pest or weed control at 400 µg/mL [6] of 90 to 100%, a pest or weed control at 400 µg/mL [7] of 90 to 100% and a pest or weed control at 400 µg/mL [8] of 20 to 89%. It also gave a pest or weed control at 400 µg/mL [9] of 0 to 19%.
With `Cc1oc2ncnc(OCCc3ccc(-c4ccccc4)cc3)c2c1C` [Example 51, 4-[2-[4-biphenylyl]ethoxy]-5,6-dimethylfuro[2,3-d]pyrimidine] the pest or weed control at 400 µg/mL [1] was 0 to 19%, the mortality at 12 ppm [2] was 0% and the mortality at 24 ppm [2] was 0%. It also gave a mortality at 200 ppm [3] of 0%, a mortality at 400 ppm [3] of 0% and a mortality at 200 ppm [4] of 100%. The mortality at 400 ppm [4] was 80%, the mortality at 200 ppm [5] was 90% and the mortality at 400 ppm [5] was 80%. It also gave a pest or weed control at 400 µg/mL [6] of 0 to 19%, a pest or weed control at 400 µg/mL [7] of 90 to 100% and a pest or weed control at 400 µg/mL [8] of 0 to 19%. The pest or weed control at 400 µg/mL [9] was 0 to 19%.
With `Cc1oc2ncnc(OCC3CCC(C)O3)c2c1C` (stereo not drawn) [Example 60, 5,6-dimethyl-4-[(2-methyloxolan-5-yl)methoxy]furo[2,3-d]pyrimidine] the pest or weed control at 400 µg/mL [1] was 0 to 19%, the mortality at 12 ppm [2] was 0% and the mortality at 24 ppm [2] was 0%. The mortality at 200 ppm [3] was 0%, the mortality at 400 ppm [3] was 0% and the mortality at 200 ppm [4] was 0%. For the same compound, the mortality at 400 ppm [4] was 80%, the mortality at 200 ppm [5] was 50% and the mortality at 400 ppm [5] was 60%. It also gave a pest or weed control at 400 µg/mL [6] of 0 to 19%, a pest or weed control at 400 µg/mL [7] of 90 to 100% and a pest or weed control at 400 µg/mL [8] of 0 to 19%. It also gave a pest or weed control at 400 µg/mL [9] of 0 to 19%.
In the case of `CCOc1ccc(CCNc2ncnc3oc(C)c(C)c23)cc1` [Example 3, 5,6-dimethyl-N-[2-(4-ethoxyphenyl)ethyl]furo[2,3-d]pyrimidin-4-amine], the pest or weed control at 400 µg/mL [1] is reported as 20 to 89%, the mortality at 12 ppm [2] is reported as 0% and the mortality at 24 ppm [2] is reported as 0%. The mortality at 200 ppm [3] was 30%, the mortality at 400 ppm [3] was 0% and the mortality at 200 ppm [4] was 0%. The mortality at 400 ppm [4] was 0%, the mortality at 200 ppm [5] was 0% and the mortality at 400 ppm [5] was 0%. The pest or weed control at 400 µg/mL [6] was 20 to 89%, the pest or weed control at 400 µg/mL [7] was 20 to 89% and the pest or weed control at 400 µg/mL [8] was 0 to 19%. The pest or weed control at 400 µg/mL [9] was 0 to 19%.
